From patent publication EP4806894A1, “TNAP INHIBITORY COMPOUND AND USE THEREOF” (Rednvia Co., Ltd., priority 2023, dated 2025)
pIC50: −log10 of the molar value.

What was measured:
TNAP = target: T1, TNAP (Homo sapiens, UniProt P05186); assay: TNAP inhibitory activity, colorimetric assay (alkaline phosphatase assay kit ab83369, pNPP substrate); format: biochemical; details: TNAP enzyme, 2 hours at room temperature, absorbance 405 nm
T1 sequence (P05186 18-502 limits assumed): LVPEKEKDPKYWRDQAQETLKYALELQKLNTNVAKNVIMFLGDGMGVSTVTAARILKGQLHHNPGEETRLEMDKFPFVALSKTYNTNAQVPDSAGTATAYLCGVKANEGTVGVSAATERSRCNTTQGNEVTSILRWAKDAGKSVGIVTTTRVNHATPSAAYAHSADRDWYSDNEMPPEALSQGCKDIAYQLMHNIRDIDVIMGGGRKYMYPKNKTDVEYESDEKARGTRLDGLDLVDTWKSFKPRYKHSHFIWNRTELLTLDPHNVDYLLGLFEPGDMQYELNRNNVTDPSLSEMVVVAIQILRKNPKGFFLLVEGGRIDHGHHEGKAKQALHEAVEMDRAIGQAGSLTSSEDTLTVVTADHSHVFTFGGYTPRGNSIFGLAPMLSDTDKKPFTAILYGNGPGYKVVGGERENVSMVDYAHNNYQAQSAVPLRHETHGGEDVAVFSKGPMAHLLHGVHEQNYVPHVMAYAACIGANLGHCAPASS

saos-2 cells = assay: Anticalcification efficacy in saos-2 cells (osteogenic medium, Alizarin Red staining); format: cell-based; details: test compound 1 µM, 7 days osteogenic medium, Alizarin Red absorbance 540 nm
Outline: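 Saos-2 cells at 80–90% confluence induced for 7 days in osteogenic medium (DMEM, 100 nM dexamethasone, 10 mM β-glycerophosphate, 0.05 mM ascorbic acid), compound (0.5, 1, 5, 10 […]) added with each medium change. Alizarin Red staining eluted with cetylpyridinium chloride, A540 read; inhibition taken against OM-only absorbance.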

C57BL/6 mouse [1] = assay: Warfarin-induced calcification mouse animal model (aortic valve histopathology); format: in vivo; details: for blackened area (von Kossa staining, increased calcification): Figure 1, versus warfarin and vitamin K1-induced calcification group (B); for Number of inflammatory cells (cells/mm^2): aortic valve area; for Number of inflammatory cells (cells/mm^2) / Mean thickness (µm): HE staining; for Number of inflammatory cells (cells/mm^2) / Mean thickness (µm) / Calcified area (%/mm^2): warfarin and vitamin K1 for 4 weeks, C57BL/6 mouse; for Mean thickness (µm) / Calcified area (%/mm^2): aortic valve; for Calcified area (%/mm^2): von Kossa staining
Procedure: • 1. Animal: C57BL/6 mouse (OrientBio, Sungnam-city, Korea) • Gender: male • Age on arrival: C57BL/6 (6 weeks) • Raising: Animals were raised in filter cap polycarbonate cages, 5 animals each, in a temperature (25°C) and humidity (45-55%) controlled sterile clean room. The light:dark cycle was 12 hours:12 hours, and sterilized food and water were provided with free access. • Guidelines: All animals were treated in accordance with the Daegu Haany University Institutional Animal Care and Use Committee (Gyeongsan, Korea). • 2. General experimental methods: In vivo drug administration
After acclimating the mice for one week, they were divided into each group and tested.
After acclimation for one week, the groups were randomized.
The mice were divided into four groups: a group that received no treatment (A), a group that was treated with warfarin and vitamin K1 to induce calcification (B), a group that was administered orally with 0.5% CMC (carboxymethyl Cellulose) (C), and a group that was administered with the test compound. The compounds of Example 1 (K) and Example 6 (L) were selected as the test compound.
All groups, except the untreated control group (Normal), were administered both warfarin and vitamin K1 at 8:00 AM and warfarin alone at 8:00 PM for 4 weeks.
Heart tissue samples were obtained from each group and used for analysis.
(§1) Individual heart samples were cut crosswise, one section at a time, around the origin/root region of the ascending aorta. Histological sections were then prepared from all the samples received. All cross-sectioned cardiac-aortic valve sections were refixed in 10% neutral buffered formalin for 24 hours to prepare histological samples. After the samples were embedded in paraffin, two serial sections of 3 to 4 µm thickness were prepared on each paraffin block and stained with hematoxylin & eosin (HE) for general histopathology or von Kossa (VK) for calcium deposition, respectively. To observe more detailed changes, a computer-assisted image analysis program and a histological camera system were used to calculate the mean aortic valve thickness (µm) and the number of inflammatory cells infiltrating the aortic valve area (cells/mm^2) in HE staining, and the mean calcified aortic valve area (%/mm^2) in VK staining in this histopathological analysis.

C57BL/6 mouse [2] = assay: Vitamin D-induced calcification mouse animal model (aortic valve histopathology); format: in vivo; details: for blackened area (von Kossa staining, increased calcification): Figure 2, versus high-dose vitamin D3-induced calcification group (B); for Number of inflammatory cells (cells/mm^2): aortic valve area; for Number of inflammatory cells (cells/mm^2) / Mean thickness (µm): HE staining; for Number of inflammatory cells (cells/mm^2) / Mean thickness (µm) / Calcified area (%/mm^2): vitamin D3 6.5x10^5 IU/Kg s.c. for 3 days, compound orally once a day for 8 days, mouse; for Mean thickness (µm) / Calcified area (%/mm^2): aortic valve; for Calcified area (%/mm^2): von Kossa staining
Procedure: as §1
Experimental animals were prepared similarly to Experimental Example 3. Excluding the normal group, four groups were administered with high-dose (6.5x10^5 IU/Kg) vitamin D3 subcutaneously once a day for a total of 3 days to induce calcification. The compounds of Examples 1 and 6 were administered orally together from the first day of vitamin D3 administration, and then administered once a day for 5 more days without vitamin D3 administration, for a total of 8 days.
Samples were obtained and analyzed in the same manner as in Experimental Example 3.

Compound | pIC50 (TNAP) | inhibition at 1 µM (saos-2 cells; Homo sapiens, 168 h, read-out: calcification inhibition) [%] | blackened area (von Kossa staining, increased calcification) (C57BL/6 mouse [1]) | Number of inflammatory cells (cells/mm^2) (C57BL/6 mouse [1]) | Mean thickness (µm) (C57BL/6 mouse [1]) | Calcified area (%/mm^2) (C57BL/6 mouse [1]) | blackened area (von Kossa staining, increased calcification) (C57BL/6 mouse [2]) | Number of inflammatory cells (cells/mm^2) (C57BL/6 mouse [2]) | Mean thickness (µm) (C57BL/6 mouse [2]) | Calcified area (%/mm^2) (C57BL/6 mouse [2]) | calcification inhibition (saos-2 cells)
COc1ccc(Cl)cc1S(=O)(=O)Nc1cnc2c(c1)C(=O)NCC2 [Example 6, 5-chloro-2-methoxy-N-(5-oxo-5,6,7,8-tetrahydro-1,6-naphthyridine-3-yl)benzenesulfonamide] | ≥ 8.00 | ≥ 50 | significantly reduced | 80.40±14.90 | 91.69±15.70 | 1.16±0.30 | significantly reduced | 58.89±17.32 | 51.76±10.39 | 2.44±0.92 | –
5-chloro-2-methoxy-N-(5-oxo-6,7-dihydro-5H-pyrrolo[3,4-b]pyridine-3-yl)benzenesulfonamide [Example 1] | 7.00 to 8.00 | – | significantly reduced | 144.40±43.12 | 112.42±10.81 | 2.45±0.64 | significantly reduced | 110.89±21.64 | 64.26±12.34 | 7.95±1.16 | A (inhibition of 50% or more was expressed as "A")
